Reference: publication PMC8603350, “A Remote Secondary Binding Pocket Promotes Heteromultivalent Targeting of DC-SIGN” (Journal of the American Chemical Society, 2021)
Changes are numbered by the printed parent chain. “Also recorded” adds a separate entry of the source.

Columns and labels:
DC-SIGN ECD [1] = biological target: T1, DC-SIGN ECD (Homo sapiens, UniProt Q9NNX6); assay: 19F NMR reporter displacement assay transferred to DC-SIGN ECD; assay type: binding; conditions: 0.1 mM reporter 49; for 48 estimated, receptor precipitation above 1 mM
T1 construct: DC-SIGN extracellular domain (ECD); made in house; host or cells: E. coli BL21(DE3), pET30b; gene from GenScript
T1 sequence (Q9NNX6 59-404 limits assumed): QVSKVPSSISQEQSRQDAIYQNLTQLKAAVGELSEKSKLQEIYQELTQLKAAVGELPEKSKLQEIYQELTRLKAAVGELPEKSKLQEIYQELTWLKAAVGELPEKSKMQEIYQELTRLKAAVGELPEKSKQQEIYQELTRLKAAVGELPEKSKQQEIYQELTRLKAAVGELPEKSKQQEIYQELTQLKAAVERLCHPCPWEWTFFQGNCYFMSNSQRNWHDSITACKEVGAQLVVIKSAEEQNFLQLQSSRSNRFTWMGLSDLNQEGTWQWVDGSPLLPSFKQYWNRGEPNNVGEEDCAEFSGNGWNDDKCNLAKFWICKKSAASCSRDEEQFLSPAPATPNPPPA

DC-SIGN ECD [2] = biological target: T1, DC-SIGN ECD; assay: KD determination from 19F NMR CSPs; assay type: binding; conditions: direct observation of CF3 chemical shift; read-out: KD (19F CSP)
DC-SIGN+ Raji cells = assay: Liposome binding assay, flow cytometry; assay type: cell-based
Experimental: If not stated otherwise, all media and supplements for cell culture experiments were purchased from Thermo Fisher Scientific. Raji, THP-1 and U937 cell lines (ATCC) were grown in complete growth medium containing RPMI1640 medium, 10% FCS, 100 U mL-1 Penicillin-Streptomycin and GlutaMax at 37°C and 5% CO2. Cells were monitored with a light microscope (IT40 5PH, VWR) and subcultured every 2 -3 days to maintain cell densities ranging from of 0.5 - 3 x 10^6 cells per mL.
CLR-expressing cell lines were generated as described before.4,27 Briefly, DC-SIGN, Langerin, murine Langerin and murine Dectin-1 cDNAs (Sinobiologicals) were cloned into a lentiviral BIC-PGK-Zeo-T2a-mAmetrine:EF1A construct by Gibson assembly (NEB) according to the manufacturer’s protocol. HEK293 cells were transfected with the lentiviral vector together with third-generation packaging vectors and viral particles were then used for transduction of Raji cells. In analogy, DC-SIGN and Langerin-expressing THP-1 and U937 cell lines were generated by lentiviral transduction.
Liposome binding assay – flow cytometry
Liposome binding to CLR-expressing cells was assayed as previously described.27 Briefly, 0.05 x 10^6 cells were plated in transparent conical-bottom 96 well microtiter plates (Nunc) in a volume of 100 µL medium. Plates were centrifuged at 500 x g for 3 minutes, supernatant was aspirated, and cells were resuspended in 100 µL medium, containing 16 µM liposomes. In control experiments, cells were incubated with medium containing 10 mM EDTA or 50 µg mL-1 mannan for 15 min at 4 °C, prior to liposome application. After 1 h incubation at 4 °C in the dark, cells were centrifuged at 500 x g for 3 min and the supernatant was discarded. Cells wer e resuspended in 200 µL ice-cold medium and analyzed by detecting the co-formulated Alexa 647 dye via flow cytometry with a 654 nm laser and a 670/14 nm filter (Attune Nxt, life technologies).
Flow cytometry data was processed using FlowJo (BD Bioscience). Mean fluorescence intensity (MFI) was further analyzed and plotted using GraphPad Prism (GraphPad […]
To monitor allosteric activation of DC-SIGN by glycomimetic 48, the described protocol was adjusted as follows. DC-SIGN+ Raji cells were plated in transparent conical-bottom 96 well microtiter plates (Nunc) in a volume of 100 µL medium. Plates were centrifuged at 500 x g for 3 minutes, supernatant was aspirated, and cell were resuspended in 25 µL medium supplemented with varying concentrations of monovalent carbohydrates or 0.5 mM 48. Homomultivalent liposomes carrying either natural carbohydrates or 48 were added at a final concentration of 16 µM. Liposome binding was subsequently quantified by measuring Alexa 647 fluorescence in flow cytometry experiments. Statistical significance by means of a student’s t-test was assessed based on averaged normalized MFIs from four biological replicates each conducted as technical duplicates. A p-value < 0.05 was set as significance cut-off.

DC-SIGN CRD M270F = biological target: T2, DC-SIGN CRD M270F (Homo sapiens, UniProt Q9NNX6, M270F); assay: 15N HSQC NMR binding experiments with M270F mutant; conditions: absence of Ca2+
T2 construct: His-tagged DC-SIGN CRD wild-type as well as the M270F mutant; His-tag; made in house; host or cells: E. coli BL21(DE3), pET28a; gene from GenScript
T2 sequence (Q9NNX6 263-378 M270F limits assumed): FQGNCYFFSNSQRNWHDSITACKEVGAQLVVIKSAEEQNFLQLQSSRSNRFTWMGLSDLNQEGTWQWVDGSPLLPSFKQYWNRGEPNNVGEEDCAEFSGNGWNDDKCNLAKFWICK

DC-SIGN CRD = biological target: T3, DC-SIGN CRD (Homo sapiens, UniProt Q9NNX6); assay: 15N HSQC NMR titration; assay type: binding; conditions: 10 mM CaCl2, MES pH 6.0
T3 construct: His-tagged DC-SIGN CRD wild-type as well as the M270F mutant; His-tag; made in house; host or cells: E. coli BL21(DE3), pET28a; gene from GenScript
T3 sequence (Q9NNX6 263-378 limits assumed): T2 sequence (Q9NNX6 263-378 M270F limits assumed) with F8M

DC-SIGN ECD [3] = biological target: T1, DC-SIGN ECD; assay: Direct 19F R2-filtered NMR binding experiments (CF3 resonance)
Experimental: KI values were determined as previously described for Langerin and the DC-SIGN CRD.6 Briefly, competitive binding experiments were conducted with 49 at a concentration of 0.1 mM and varying competitor concentrations [I]T. KI and [P]T values were derived from Equation 8 in a two-parameter fit.
R2,obs = R2,f + (R2,b − R2,f)pb […]
θ = cos−1 ( ) ,a = KD + KI + [L]T + [I]T − [P]T
b = ([I]T − [P]T)KD + ([L]T − [P]T)KD + KIKD, c = −KIKD[P]T
KD determination from 19F NMR CSPs
For KD determination from 19F NMR CSPs, samples and measurements were set up as described for 19F R2-filtered NMR but at a single relaxation time T = 0 s. CSP 19F, T were calculated from the chemical shift of the 19F resonance of 48 in the presence of protein δT at increasing ligand concentrations and the chemical shift in absence of protein δf at a concentration of 1 mM via Equation 4.
The KD value was calculated from CSP19F, T values in a two -parameter fit using Equation 10, using a fixed protein concentration [P] T and a CSP19F of 0 ppm as a lower bound. CSP19F,b corresponds to the top asymptote and was kept variable. As in Equation 9, pb represents the fraction of bound protein.

Ki (DC-SIGN ECD [1]): 1.15 ± 0.01 mM
Kd (DC-SIGN ECD [2]): 370 ± 60 µM
binding to M270F mutant (DC-SIGN CRD M270F): abrogation of 48-binding
Kd (DC-SIGN CRD): 460 ± 160 µM
Kd (DC-SIGN ECD [3]; direct observation of CF3 relaxation rate R2,obs): 480 ± 100 µM
apparent KD values lower than the determined KI (DC-SIGN ECD [3]; direct-binding NMR KD vs RDA KI): about 3 fold
SMILES: NC[C@H]1O[C@H](Oc2ccc(-c3ccc(C(=O)O)cc3)cc2C(F)(F)F)[C@@H](O)[C@@H](O)[C@@H]1O [compound 48]
effect of soluble compound on binding of Fuc-Lip liposomes (DC-SIGN+ Raji cells; 0.5 mM soluble 48, liposomes with 2.5 mol % Fuc-Lip, p < 0.05, n = 4): significantly enhances; also recorded: significantly increased
binding of homomultivalent liposomes (DC-SIGN+ Raji cells; 42-Lip up to 1.26%, 48 up to 1.66% total lipid concentration): does not show any binding
molar glycomimetic/Man ratio around which the cooperative binding effect saturates (DC-SIGN+ Raji cells; heteromultivalent liposomes with Man-Lip): ~0.5
